Experimental data reported in patent US4875922A, “Pyrimidine derivatives” (Imperial Chemical Industries PLC, priority 1986, dated 1989).
Like-named read-outs stand apart in the source and are kept apart here.

Key:
Apples [1] = experiment: Intermediate Retardant Test, apples, overall spray; format: in vivo, Apples (Red Delicious); details: approximately 28 days, Table VIII
Source text: (§1) Three species are involved in this test RICE, SPRING-BARLEY and APPLES. The variety and growth stages at spray are outlined in Table V. Compounds were applied at 500 ppm and 2000 ppm respectively (0.5 kg and 2 kg/ha^-1 at a field volume of 1000 l/ha^-1) as an overall spray except in the case of certain tests on APPLES. This gives a foliar and root component in the test, i.e., this test will detect the activity of both root and foliar acting compounds. The intermediate retardant test on APPLES of which the results are given in Table IX was different, in that a foliar (only) spray at 2000 ppm was compared with a root drench, also at 2000 ppm. The rice was grown in 4" `paddy` pots, i.e., the roots and bottom of the stems are immersed in water under conditions corresponding to those in paddy fields. Spring barley and apples were grown in 4" pots. The plants were assessed for height to top-most ligule at approximately 28 days after treatment for spring barley and rice and for height to apex at approximately 28 days after the treatment for apples. In each case the result for the 500 ppm and 2000 ppm test for each compound is compared to the height of the formulation blank in that test, presented as a percentage reduction in height compared to the formulation blank.

Rice [2] = experiment: Intermediate Retardant Test, rice; format: in vivo, Rice (Ishikari); details: Oryza sativa, 672 h, read-out: Percentage Reduction in Height of Rice (Compared to formulation blank)
Source text: as §1
(§2) The prior art compound was compared with compounds of the present invention in side-by-side comparisons using the Intermediate Retardant Test described in Example 62, and the results are given in Tables X to XII where `A` is the prior art compound, 2-methyl-1-isopropyl-1-(pyrimidin-5-yl)-propan-1-ol).

Barley = experiment: Whole plant screen for plant growth regulator activity, barley (BR); format: in vivo, Barley (Atem); details: BR, 4000 ppm (4 kg/ha), visual score after 2-6 weeks; for T = Tillering or side shooting: * = decrease in tillering
Procedure, shortened: (§3)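 Visual scoring of morphological effects after 2-6 weeks in glasshouse, compared with formulation-blank controls. Spray application was 4000 ppm, equal to 4 kg/ha at 1000 l/ha field volume, at set leaf stages. Growth at 25° C./22° C. day/night with 16 hour photoperiod; temperate cereals wheat and barley at 16° C./13° C.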

Spring Barley = experiment: Intermediate Retardant Test, spring barley; format: in vivo, Spring Barley (Atem/kym); details: Hordeum vulgare, 672 h, read-out: Percentage Reduction in Height of Spring Barley (Compared to formulation blank)
Source text: as §1, §2

Apples [3] = experiment: Intermediate Retardant Test, apples, foliar spray compared with root drench; format: in vivo, Apples (Red Delicious); details: 672 h, read-out: Percentage Reduction in Height of Apples (Compared to formulation blank)
Source text: as §1, §2

Wheat = experiment: Whole plant screen for plant growth regulator activity, wheat (WW); format: in vivo, Wheat (Timmo); details: WW, 4000 ppm (4 kg/ha), visual score after 2-6 weeks; for T = Tillering or side shooting: * = decrease in tillering
Procedure, shortened: as §3

Rice [4] = experiment: Whole plant screen for plant growth regulator activity, rice (RC); format: in vivo, Rice (Ishikari); details: 4000 ppm (4 kg/ha), visual score after 2-6 weeks; for T = Tillering or side shooting: * = decrease in tillering
Procedure, shortened: as §3

Maize = experiment: Whole plant screen for plant growth regulator activity, maize (MZ); format: in vivo, Maize (Earliking); details: 4000 ppm (4 kg/ha), visual score after 2-6 weeks
Protocol: Compounds 1 to 3 in Table 1 were tested for plant growth regulator activity against five species for various growth effects relevant to plant growth regulation.
The plant species used in this screen are presented in Table II with the leaf stage at which they were sprayed. Each chemical was applied at 4000 ppm (4 kg/ha in a 1000 l/ha field volume) using a tracksprayer and a SS8004E (Teejet) nozzle.
After spray the plants were grown in a glasshouse with 25° C. day/22° C. night temperatures and supplementary lighting was supplied when necessary (from mercury vapour lamps), to provide a 16 hour photoperiod. The exception to this were the temperate cereals, wheat and barley which were grown in 16° C. day/13° C. night temperatures.
After 2-6 weeks in the glasshouse, depending on the time of year, the plants were visually assessed for morphological characteristics. Formulation blanks were used as controls to assess the plants. […]

Apple = experiment: Whole plant screen for plant growth regulator activity, apple (AP); format: in vivo, Apple (Red Delicious); details: 4000 ppm (4 kg/ha), visual score after 2-6 weeks
Procedure, shortened: as §3

Tomato = experiment: Whole plant screen for plant growth regulator activity, tomato (TO); format: in vivo, Tomato (Ailsa Craig); details: 4000 ppm (4 kg/ha), visual score after 2-6 weeks
Procedure, shortened: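 Plant growth regulation scored visually 2–6 weeks post-spray, relative to formulation-blank controls, with growth at 25/22 °C day/night under 16 h light. Treatment: 4000 ppm (4 kg/ha, 1000 l/ha volume) track-sprayed onto Ailsa Craig tomato at the 2–2½ leaf stage, grown singly in 3-inch peat pots.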

[5] = overall spray, approximately 28 days, Table VI
[6] = side-by-side comparison with prior art compound, Table X
[7] = overall spray, approximately 28 days, Table VII
[8] = side-by-side comparison with prior art compound, Table XI
[9] = 2000 ppm (Foliar), side-by-side comparison with prior art compound, Table XII
[10] = 2000 ppm (Root), side-by-side comparison with prior art compound, Table XII

## CCCC#CC(O)(c1cncnc1)C(C)C (stereo not drawn) [Compound 2, 2-methyl-1-(pent-1-yne)-1-(pyrimidin-5-yl)-propan-1-ol]
Apples [1]; 500 ppm
  Percentage Reduction in Height of Apples (Compared to formulation blank): 10.5%
Apples [1]; 2000 ppm
  Percentage Reduction in Height of Apples (Compared to formulation blank): 52.1%
Rice [2]; [5]
  Percent reduction in rice height vs formulation blank at 500 ppm: 18%
  Percent reduction in rice height vs formulation blank at 2000 ppm: 46%
Rice [2]; [6]
  Percent reduction in rice height vs formulation blank at 500 ppm: 27%
  Percent reduction in rice height vs formulation blank at 2000 ppm: 69%
Barley
  G = Greening effect: 1 (10-30%)
  I = Interligular or internodal length reduction: 3 (61-100%)
  R = Retardation: 3 (61-100%)
  T = Tillering or side shooting: 3 (61-100%)
Spring Barley; [7]
  percent reduction in plant height at 500 ppm: 1%
  percent reduction in plant height at 2000 ppm: 20%
Spring Barley; [8]
  percent reduction in plant height at 500 ppm: 25%
  percent reduction in plant height at 2000 ppm: 59%
Apples [3]; [9]
  percent reduction in plant height at 2000 ppm: 41.8%
Apples [3]; [10]
  percent reduction in plant height at 2000 ppm: 64.4%
Wheat
  G = Greening effect: 2 (31-60%)
  I = Interligular or internodal length reduction: 3 (61-100%)
  R = Retardation: 2 (31-60%)
  T = Tillering or side shooting: 2 (31-60%)
Rice [4]
  G = Greening effect: 2 (31-60%)
  I = Interligular or internodal length reduction: 3 (61-100%)
  R = Retardation: 3 (61-100%)
  T = Tillering or side shooting: 3 (61-100%)
Maize
  I = Interligular or internodal length reduction: 1 (10-30%)
  R = Retardation: 2 (31-60%)
Apple
  G = Greening effect: 1 (10-30%)
  I = Interligular or internodal length reduction: 2 (31-60%)
  R = Retardation: 3 (61-100%)

## CCCCCC(O)(c1cncnc1)C(C)C (stereo not drawn) [Compound 3, 2-methyl-1-pentyl-1-(pyrimidin-5-yl)-propan-1-ol]
Apples [1]; 2000 ppm
  Percentage Reduction in Height of Apples (Compared to formulation blank): 34.1%
Rice [2]; [5]
  Percent reduction in rice height vs formulation blank at 500 ppm: 17%
  Percent reduction in rice height vs formulation blank at 2000 ppm: 47%
Rice [2]; [6]
  Percent reduction in rice height vs formulation blank at 500 ppm: 17%
Barley
  G = Greening effect: 2 (31-60%)
  I = Interligular or internodal length reduction: 3 (61-100%)
  R = Retardation: 3 (61-100%)
  T = Tillering or side shooting: 3 (61-100%)
Spring Barley; [8]
  percent reduction in plant height at 500 ppm: 0%
Spring Barley; [7]
  percent reduction in plant height at 2000 ppm: 11%
Apples [3]; [9]
  percent reduction in plant height at 2000 ppm: 14.2%
Apples [3]; [10]
  percent reduction in plant height at 2000 ppm: 62.7%
Wheat
  G = Greening effect: 1 (10-30%)
  I = Interligular or internodal length reduction: 3 (61-100%)
  R = Retardation: 3 (61-100%)
  T = Tillering or side shooting: 2 (31-60%)
Rice [4]
  G = Greening effect: 2 (31-60%)
  I = Interligular or internodal length reduction: 2 (31-60%)
  R = Retardation: 3 (61-100%)
  T = Tillering or side shooting: 1 (10-30%)
Maize
  A = Apical damage: 1 (10-30%)
Apple
  G = Greening effect: 1 (10-30%)
  I = Interligular or internodal length reduction: 2 (31-60%)
  R = Retardation: 3 (61-100%)

## CCCC#CC(O)(c1cncnc1)C(C)(C)C (stereo not drawn) [Compound 14, 2,2-Dimethyl-1-(pent-1-yne)-1-(pyrimidin-5yl)propan-1ol]
Tomato
  G = Greening effect: 2 (31-60%)
  I = Interligular or internodal length reduction: 2 (31-60%)
  R = Retardation: 3 (61-100%)
Rice [2]; [5]
  Percent reduction in rice height vs formulation blank at 500 ppm: 63%
  Percent reduction in rice height vs formulation blank at 2000 ppm: 76%
Barley
  G = Greening effect: 2 (31-60%)
  I = Interligular or internodal length reduction: 3 (61-100%)
  R = Retardation: 3 (61-100%)
  T = Tillering or side shooting: 3 (61-100%)
Spring Barley; [7]
  percent reduction in plant height at 500 ppm: 51%
  percent reduction in plant height at 2000 ppm: 68%
Apples [3]; 2000 ppm (Foliar), approximately 28 days, Table IX
  percent reduction in plant height at 2000 ppm: 23%
Apples [3]; soil, 2000 pmm (Root), root drench, approximately 28 days, Table IX
  percent reduction in plant height at 2000 µg/mL: 58.5%
Wheat
  G = Greening effect: 2 (31-60%)
  I = Interligular or internodal length reduction: 3 (61-100%)
  R = Retardation: 3 (61-100%)
  T = Tillering or side shooting: 3 (61-100%)
Rice [4]
  G = Greening effect: 2 (31-60%)
  I = Interligular or internodal length reduction: 2 (31-60%)
  R = Retardation: 3 (61-100%)
Maize
  A = Apical damage: 1 (10-30%)
  G = Greening effect: 2 (31-60%)
  I = Interligular or internodal length reduction: 3 (61-100%)
  R = Retardation: 2 (31-60%)
Apple
  G = Greening effect: 3 (61-100%)
  I = Interligular or internodal length reduction: 3 (61-100%)
  R = Retardation: 3 (61-100%)
Apple; * = decrease in tillering
  T = Tillering or side shooting: 1 (10-30%)
